According to patent publication US6413521B1, “Helminth parasite antigen with aminopeptidase-like activity” (The Barbraham Institute, priority 1993, dated 2002):
Non-standard residues stand in square brackets, D forms with d. Residues, ends and D or L forms follow the SMILES beside them. *: point of attachment. Sta = CC(C)C[C@H](N)[C@@H](O)CC(=O)O; Isovaleryl = CC(C)CC(=O)*

B1: Thermolysin: protease, Sigma, 37 units/mg solid (protein, UniProt P00800 233-548, looked up)
Thermolysin: ITGTSTVGVGRGVLGDQKNINTTYSTYYYLQDNTRGNGIFTYDAKYRTTLPGSLWADADNQFFASYDAPAVDAHYYAGVTYDYYKNVHNRLSYDGNNAAIRSSVHYSQGYNNAFWNGSQMVYGDGDGQTFIPLSGGIDVVAHELTHAVTDYTAGLIYQNESGAINEAISDIFGTLVEFYANKNPDWEIGEDVYTPGISGDSLRSMSDPAKYGDPDHYSKRYTGTQDNGGVHINSGIINKAAYLISQGGTHYGVSVVGIGRDKLGKIFYRALTQYLTPTSNFSQLRAAAVQSATDLYGSTSQEVASVKQAFDAVGVK
B2: Subtilisin: protease, Sigma type VIII, 11.6 units/mg solid (protein, UniProt P00780 106-379, looked up)
Subtilisin Carlsberg: AQTVPYGIPLIKADKVQAQGFKGANVKVAVLDTGIQASHPDLNVVGGASFVAGEAYNTDGNGHGTHVAGTVAALDNTTGVLGVAPSVSLYAVKVLNSSGSGSYSGIVSGIEWATTNGMDVINMSLGGASGSTAMKQAVDNAYAKGVVVVAAAGNSGSSGNTNTIGYPAKYDSVIAVGAVDSNSNRASFSSVGAELEVMAPGAGVYSTYPTNTYATLNGTSMASPHVAGAAALILSKHPNLSASQVRNRLSSTATYLGSSFYYGKGLINVEAAAQ

Columns and labels:
[1] = test system: Con A Oo12 ApM activity; experiment: Con A O12 aminopeptidase inhibition assay, ApM (leucine p-nitroanilide); type: biochemical, Ostertagia ostertagi
Experimental: (§1) The effect of various protease inhibitors on Oo12 activity was assayed and included amastatin (aminopeptidase inhibitor), actinonin (aminopeptidase inhibitor), bestatin (aminopeptidase inhibitor), EDTA (metallo-protease inhibitor), E64 (cysteine protease inhibitor), pepstatin (aspartic protease inhibitor), 1,10 phenanthroline (metallo-protease inhibitor) and 3,4-dichloroisocoumarin (DCI, serine protease inhibitor). 10 μl Con A Oo12 and 100 μl 50 mM Mops buffer, pH 7.0 was added to a microtitre plate well and 2-4 μl of enzyme inhibitor added, to give a final concentration of 0.5 mM and 1 mM actinonin, 50 μM and 100 μM bestatin, 1 mM and 15 mM EDTA, 50 μM and 100 μM E64, 10 and 50 μM pepstatin, 1 mM and 10 mM 1,10 phenanthroline, 100 μM and 500 μM DCI. The plate was preincubated at 37° C. for 20-28 minutes and then assayed for ApM and ApA activity. 100 μl 2 mM leucine p-nitroanilide (ApM) or α-glutamic p-nitroanilide (ApA)/Mops was added per well and the optical density (OD) at 405 nm read using an Elisa plate reader. The plates were incubated at 37° C. for 45-48 minutes and the final OD reading was then taken. The OD change per minute per 10 μl sample was calculated. All assays were carried out in triplicate.

[2] = test system: Con A Oo12 ApA activity; experiment: Con A O12 aminopeptidase inhibition assay, ApA (α-glutamic p-nitroanilide); type: biochemical, Ostertagia ostertagi
Experimental: as §1

[3] = test system: Ostertagia ostertagi PHP; experiment: Protease digestion of Oo PhP, release of ApM activity; type: biochemical
Experimental: Method: Oo PhP was resuspended in 50 mM Mops buffer, pH 7.0 to give 0.1 mg pellet/ml. 50 μl aliquots were prewarmed at 37° C. for 39 minutes. 5 μl of either α-Chymotrypsin (Sigma type VII, 50 units/mg solid), Subtilisin (Sigma type VIII, 11.6 units/mg solid), Trypsin (Sigma, TPCK-treated type XIII, 9700 units/mg solid) or Thermolysin (Sigma, 37 units/mg solid dissolved in 1 mM KCl/2 mM CaCl) was added to give final protease concentrations of 5, 50, 500, 1000 and 2000 μg/ml. Aliquots containing chymotrypsin, trypsin or subtilisin were then incubated at 37° C. for 1 hour and protease activity inhibited by the addition of 1 μl 10 mM 3,4-dichloroisocoumarin (DCI). Aliquots containing thermolysin were incubated for 2 hours at 37° C. and activity inhibited by the addition of 1 μl 0.25M EDTA. Samples were spun at high speed on the airfuge at 20 psi for 20 minutes at room temperature. 5 μl samples were assay for ApM activity, using the microtitre plate method, over 29.6 minutes with methionine-pNA as substrate.

Row | Molecule | Leu-pNA enzyme activity ([1]; inhibitor 1 mM) [nmoles/min/10 μl ConA O12] | Leu-pNA enzyme inhibition ([1]; inhibitor 1 mM) [%] | α-Glu-pNA enzyme activity ([2]; inhibitor 1 mM) [nmoles/min/10 μl ConA O12] | α-Glu-pNA enzyme inhibition ([2]; inhibitor 1 mM) [%] | Leu-pNA enzyme activity ([1]; inhibitor 50 μM) [nmoles/min/10 μl ConA O12] | Leu-pNA enzyme inhibition ([1]; inhibitor 50 μM) | Leu-pNA enzyme activity ([1]; inhibitor 100 μM) [nmoles/min/10 μl ConA O12] | Leu-pNA enzyme inhibition ([1]; inhibitor 100 μM) | α-Glu-pNA enzyme activity ([2]; inhibitor 50 μM) [nmoles/min/10 μl ConA O12] | α-Glu-pNA enzyme inhibition ([2]; inhibitor 50 μM) [%] | α-Glu-pNA enzyme activity ([2]; inhibitor 100 μM) [nmoles/min/10 μl ConA O12] | α-Glu-pNA enzyme inhibition ([2]; inhibitor 100 μM) [%] | other results
1 | c1cnc2c(c1)ccc1cccnc12 [1,10 Phenanthroline, 1,10 phenanthroline] | 0.005 | 99 | 0 | 100 | – | – | – | – | – | – | – | – | inhibitory effect on aminopeptidase activity ([1]; 10 mM): greatest inhibition; Leu-pNA enzyme activity ([1]; inhibitor 10 mM): 0 nmoles/min/10 μl ConA O12; Leu-pNA enzyme inhibition ([1]; inhibitor 10 mM): 100%; α-Glu-pNA enzyme activity ([2]; inhibitor 10 mM): 0 nmoles/min/10 μl ConA O12; α-Glu-pNA enzyme inhibition ([2]; inhibitor 10 mM): 100%
2 | CCCCC[C@H](CC(=O)NO)C(=O)N[C@H](C(=O)N1CCC[C@H]1CO)C(C)C [Actinonin, actinonin] | 0.448 | 63 | 0.029 | 91 | – | – | – | – | – | – | – | – | Leu-pNA enzyme activity ([1]; inhibitor 0.5 mM): 0.621 nmoles/min/10 μl ConA O12; Leu-pNA enzyme inhibition ([1]; inhibitor 0.5 mM): 49%; α-Glu-pNA enzyme activity ([2]; inhibitor 0.5 mM): 0.016 nmoles/min/10 μl ConA O12; α-Glu-pNA enzyme inhibition ([2]; inhibitor 0.5 mM): 95%
3 | CC(C)C[C@H](NC(=O)[C@@H](O)[C@H](N)Cc1ccccc1)C(=O)O [Bestatin, bestatin] | – | – | – | – | 0.045 | 96% | 0.022 | 98% | 0.174 | 48 | 0.119 | 64 | –
4 | O=c1oc(Cl)c(Cl)c2ccccc12 [DCI, 3,4-dichloroisocoumarin] | – | – | – | – | – | – | 1.229 | 0% | – | – | 0.252 | 24 | Leu-pNA enzyme activity ([1]; inhibitor 500 μM): 1.129 nmoles/min/10 μl ConA O12; Leu-pNA enzyme inhibition ([1]; inhibitor 500 μM): 8%; α-Glu-pNA enzyme activity ([2]; inhibitor 500 μM): 0.216 nmoles/min/10 μl ConA O12; α-Glu-pNA enzyme inhibition ([2]; inhibitor 500 μM): 35%
5 | CC(C)C[C@H](NC(=O)[C@H]1O[C@@H]1C(=O)O)C(=O)NCCCCN=C(N)N [E64] | – | – | – | – | 1.241 | 0 (+1%) | 1.278 | 0 (+4%) | 0.323 | 3 | 0.327 | 2 | –
6 | O=C(O)CN(CCN(CC(=O)O)CC(=O)O)CC(=O)O [EDTA] | 0.994 | 19 | 0.161 | 52 | – | – | – | – | – | – | – | – | Leu-pNA enzyme activity ([1]; inhibitor 15 mM): 0.784 nmoles/min/10 μl ConA O12; Leu-pNA enzyme inhibition ([1]; inhibitor 15 mM): 36%; α-Glu-pNA enzyme activity ([2]; inhibitor 15 mM): 0.112 nmoles/min/10 μl ConA O12; α-Glu-pNA enzyme inhibition ([2]; inhibitor 15 mM): 66%
7 | CC(C)CC(=O)N[C@H](C(=O)N[C@H](C(=O)N[C@@H](CC(C)C)[C@@H](O)CC(=O)N[C@@H](C)C(=O)N[C@@H](CC(C)C)[C@@H](O)CC(=O)O)C(C)C)C(C)C [Pepstatin, pepstatin] (Isovaleryl-VV[Sta]A[Sta]-OH) | – | – | – | – | 1.263 | 0 (+3%) | – | – | 0.315 | 6 | – | – | Leu-pNA enzyme activity ([1]; inhibitor 10 μM): 1.297 nmoles/min/10 μl ConA O12; Leu-pNA enzyme inhibition ([1]; inhibitor 10 μM): 0 (+6%); α-Glu-pNA enzyme activity ([2]; inhibitor 10 μM): 0.326 nmoles/min/10 μl ConA O12; α-Glu-pNA enzyme inhibition ([2]; inhibitor 10 μM): 2%
8 | B1 | – | – | – | – | – | – | – | – | – | – | – | – | Aminopeptidase M activity released by protease digestion, Met-pNA ([3]; 5 μg protease/0.1 mg PHP/ml): 0.06 nmoles/min/5 μl high speed supernatant; Aminopeptidase M activity released by protease digestion, Met-pNA ([3]; 50 μg protease/0.1 mg PHP/ml): 0.07 nmoles/min/5 μl high speed supernatant; Aminopeptidase M activity released by protease digestion, Met-pNA ([3]; 500 μg protease/0.1 mg PHP/ml): 0.08 nmoles/min/5 μl high speed supernatant; Aminopeptidase M activity released by protease digestion, Met-pNA ([3]; 1000 μg protease/0.1 mg PHP/ml): 0.11 nmoles/min/5 μl high speed supernatant; Aminopeptidase M activity released by protease digestion, Met-pNA ([3]; 2000 μg protease/0.1 mg PHP/ml): 0.19 nmoles/min/5 μl high speed supernatant; release of ApM from the PhP ([3]; 5-2000 μg/ml protease): least effective
9 | B2 | – | – | – | – | – | – | – | – | – | – | – | – | Aminopeptidase M activity released by protease digestion, Met-pNA ([3]; 5 μg protease/0.1 mg PHP/ml): 0.06 nmoles/min/5 μl high speed supernatant; Aminopeptidase M activity released by protease digestion, Met-pNA ([3]; 50 μg protease/0.1 mg PHP/ml): 0.10 nmoles/min/5 μl high speed supernatant; Aminopeptidase M activity released by protease digestion, Met-pNA ([3]; 500 μg protease/0.1 mg PHP/ml): 0.35 nmoles/min/5 μl high speed supernatant; Aminopeptidase M activity released by protease digestion, Met-pNA ([3]; 1000 μg protease/0.1 mg PHP/ml): 0.66 nmoles/min/5 μl high speed supernatant; Aminopeptidase M activity released by protease digestion, Met-pNA ([3]; 2000 μg protease/0.1 mg PHP/ml): 0.95 nmoles/min/5 μl high speed supernatant
